Where a SMILES comes first, the peptide text is derived from it. [ ]: non-standard residue; d: D form. The star is where a group is joined. NHCH2CH2OH = OCCN*; For = O=C*
How the values were obtained:
[1] = H+/Na+ transport assay of bead-derived peptides (one-point); type: biochemical; parameters: key: relative activity; mean of two control wells = 1.00; conditions: bead-derived peptide solution, EYPC/EYPG LUVs;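 further: relative to parent gramicidin A activity set to 1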
How it was run: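 Pyranine (1.0 mM)-loaded LUVs containing egg yolk phosphatidylglycerol were prepared by film hydration, sonication and extrusion, then mixed with diluted bead-derived peptide in 96-well format and vortexed 30 min at room temperature. Fluorescence was normalized between untreated LUVs (0%) and Triton X-100 lysis (100%).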

[2] = test system: P388 mouse leukemia cells; conditions: 92 h
How it was run: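 First, library peptide stocks are diluted 250-fold in RPMI1640 with 10% heat-inactivated FBS. Next, they are mixed with P388 cells to give 1 × 10^4 cells/mL and incubated 92 h at 37 °C, 5% CO2. Finally, viability (%) is scored by WST-1 absorbance at 415 nm.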

[3] = test system: Streptococcus pyogenes SSI-9; experiment: Antibacterial activity assay of bead-derived peptides (three concentrations); type: cell-based; parameters: key: +++: inhibition by the 640-fold diluted peptide solution; ++: inhibition by the 160-fold diluted solution; +: inhibition by the 40-fold diluted solution; -: no inhibition; conditions: S. pyogenes, bead-derived peptide solution, three concentrations
How it was run: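 Three stock dilutions per peptide (none, 4-fold, 16-fold in DMSO) are screened in 96-well format. The medium is blood-supplemented cation-adjusted MHB, inoculated with 2 × 10^5 CFU S. pyogenes SSI-9. Growth is read as cell precipitation at 18 h, 37 °C.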

| Compound | H+/Na+ transport activity normalized against the value of 1 (1.00) [1] | cell viability/% [2] [%] | antibacterial activity [3] |
| --- | --- | --- | --- |
| CC(C)C[C@@H](NC(=O)[C@H](C)NC(=O)CNC(=O)[C@@H](NC=O)C(C)C)C(=O)N[C@@H](C)C(=O)N[C@H](CC(C)C)C(=O)N[C@H](C(=O)N[C@@H](C(=O)N[C@@H](Cc1c[nH]c2ccccc12)C(=O)N[C@@H](C(=O)N[C@@H](Cc1c[nH]c2ccccc12)C(=O)N[C@@H](C(=O)N[C@@H](Cc1c[nH]c2ccccc12)C(=O)N[C@@H](C(=O)N[C@@H](Cc1c[nH]c2ccccc12)C(=O)NCCO)C(C)C)C(C)C)C(C)C)C(C)C)C(C)C [compound 5488] (For-VGA[dL]A[dL]V[dV]W[dV]W[dV]W[dV]W-NHCH2CH2OH) | 1.23 | 36.4 | + |
| CC(C)C[C@@H](NC(=O)[C@H](C)NC(=O)[C@H](NC(=O)[C@H](C)NC(=O)CNC(=O)[C@@H](NC=O)C(C)C)C(C)C)C(=O)N[C@H](C(=O)N[C@H](CC(C)C)C(=O)N[C@@H](Cc1c[nH]c2ccccc12)C(=O)N[C@@H](C(=O)N[C@@H](Cc1c[nH]c2ccccc12)C(=O)N[C@H](CC(C)C)C(=O)N[C@@H](Cc1c[nH]c2ccccc12)C(=O)N[C@@H](C(=O)N[C@@H](Cc1c[nH]c2ccccc12)C(=O)NCCO)C(C)C)C(C)C)C(C)C [compound 906] (For-VGA[dV]A[dL]V[dL]W[dV]W[dL]W[dV]W-NHCH2CH2OH) | 1.06 | 100.0 | + |
| CC(C)C[C@@H](NC(=O)[C@H](C)NC(=O)CNC(=O)[C@@H](NC=O)C(C)C)C(=O)N[C@@H](C)C(=O)N[C@H](CC(C)C)C(=O)N[C@H](C(=O)N[C@@H](C(=O)N[C@@H](Cc1c[nH]c2ccccc12)C(=O)N[C@@H](C(=O)N[C@@H](Cc1c[nH]c2ccccc12)C(=O)N[C@H](CC(C)C)C(=O)N[C@@H](Cc1c[nH]c2ccccc12)C(=O)N[C@H](CC(C)C)C(=O)N[C@@H](Cc1c[nH]c2ccccc12)C(=O)NCCO)C(C)C)[C@H](C)O)C(C)C [compound 2158] (For-VGA[dL]A[dL]V[dT]W[dV]W[dL]W[dL]W-NHCH2CH2OH) | 1.18 | 100.0 | - |
| CC(C)C[C@@H](NC(=O)[C@H](C)NC(=O)[C@H](NC(=O)[C@H](C)NC(=O)CNC(=O)[C@@H](NC=O)C(C)C)[C@H](C)O)C(=O)N[C@H](C(=O)N[C@H](CC(C)C)C(=O)N[C@@H](Cc1c[nH]c2ccccc12)C(=O)N[C@@H](C(=O)N[C@@H](Cc1c[nH]c2ccccc12)C(=O)N[C@H](CC(C)C)C(=O)N[C@@H](Cc1c[nH]c2ccccc12)C(=O)N[C@@H](C(=O)N[C@@H](Cc1c[nH]c2ccccc12)C(=O)NCCO)C(C)C)[C@H](C)O)C(C)C [compound 367] (For-VGA[dT]A[dL]V[dL]W[dT]W[dL]W[dV]W-NHCH2CH2OH) | 1.24 | 100.0 | - |
| CC(C)C[C@@H](NC(=O)[C@H](C)NC(=O)[C@H](NC(=O)[C@H](C)NC(=O)CNC(=O)[C@@H](NC=O)C(C)C)C(C)C)C(=O)N[C@H](C(=O)N[C@H](CC(C)C)C(=O)N[C@@H](Cc1c[nH]c2ccccc12)C(=O)N[C@@H](C(=O)N[C@@H](Cc1c[nH]c2ccccc12)C(=O)N[C@H](CC(C)C)C(=O)N[C@@H](Cc1c[nH]c2ccccc12)C(=O)N[C@@H](C(=O)N[C@@H](Cc1c[nH]c2ccccc12)C(=O)NCCO)C(C)C)[C@H](C)O)C(C)C [compound 4232] (For-VGA[dV]A[dL]V[dL]W[dT]W[dL]W[dV]W-NHCH2CH2OH) | 1.05 | 93.0 | - |
| CC(C)C[C@@H](NC(=O)[C@H](C)NC(=O)CNC(=O)[C@@H](NC=O)C(C)C)C(=O)N[C@@H](C)C(=O)N[C@H](CC(C)C)C(=O)N[C@H](C(=O)N[C@H](CC(C)C)C(=O)N[C@@H](Cc1c[nH]c2ccccc12)C(=O)N[C@H](CC(C)C)C(=O)N[C@@H](Cc1c[nH]c2ccccc12)C(=O)N[C@@H](C(=O)N[C@@H](Cc1c[nH]c2ccccc12)C(=O)N[C@H](CC(C)C)C(=O)N[C@@H](Cc1c[nH]c2ccccc12)C(=O)NCCO)C(C)C)C(C)C [compound 646] (For-VGA[dL]A[dL]V[dL]W[dL]W[dV]W[dL]W-NHCH2CH2OH) | 1.11 | 0.2 | + |
| CC(C)C[C@@H](NC(=O)[C@H](C)NC(=O)CNC(=O)[C@@H](NC=O)C(C)C)C(=O)N[C@@H](C)C(=O)N[C@H](CC(C)C)C(=O)N[C@H](C(=O)N[C@H](CC(C)C)C(=O)N[C@@H](Cc1c[nH]c2ccccc12)C(=O)N[C@@H](C(=O)N[C@@H](Cc1c[nH]c2ccccc12)C(=O)N[C@H](CC(C)C)C(=O)N[C@@H](Cc1c[nH]c2ccccc12)C(=O)N[C@@H](C(=O)N[C@@H](Cc1c[nH]c2ccccc12)C(=O)NCCO)C(C)C)C(C)C)C(C)C [compound 6096] (For-VGA[dL]A[dL]V[dL]W[dV]W[dL]W[dV]W-NHCH2CH2OH) | 1.16 | 7.3 | + |
| CC(C)C[C@@H](NC(=O)[C@H](C)NC(=O)CNC(=O)[C@@H](NC=O)C(C)C)C(=O)N[C@@H](C)C(=O)N[C@H](CC(C)C)C(=O)N[C@H](C(=O)N[C@H](CC(C)C)C(=O)N[C@@H](Cc1c[nH]c2ccccc12)C(=O)N[C@@H](C(=O)N[C@@H](Cc1c[nH]c2ccccc12)C(=O)N[C@H](CC(C)C)C(=O)N[C@@H](Cc1c[nH]c2ccccc12)C(=O)N[C@H](CC(C)C)C(=O)N[C@@H](Cc1c[nH]c2ccccc12)C(=O)NCCO)C(C)C)C(C)C [compound 11198] (For-VGA[dL]A[dL]V[dL]W[dV]W[dL]W[dL]W-NHCH2CH2OH) | 1.08 | 3.2 | - |
| CC(C)C[C@@H](NC(=O)[C@H](C)NC(=O)[C@H](NC(=O)[C@H](C)NC(=O)CNC(=O)[C@@H](NC=O)C(C)C)C(C)C)C(=O)N[C@H](C(=O)N[C@@H](C(=O)N[C@@H](Cc1c[nH]c2ccccc12)C(=O)N[C@@H](C(=O)N[C@@H](Cc1c[nH]c2ccccc12)C(=O)N[C@H](CC(C)C)C(=O)N[C@@H](Cc1c[nH]c2ccccc12)C(=O)N[C@H](CC(C)C)C(=O)N[C@@H](Cc1c[nH]c2ccccc12)C(=O)NCCO)C(C)C)[C@H](C)O)C(C)C [compound 10367] (For-VGA[dV]A[dL]V[dT]W[dV]W[dL]W[dL]W-NHCH2CH2OH) | 1.00 | 100.0 | - |
| CC(C)C[C@@H](NC(=O)[C@H](C)NC(=O)[C@H](NC(=O)[C@H](C)NC(=O)CNC(=O)[C@@H](NC=O)C(C)C)[C@H](C)O)C(=O)N[C@H](C(=O)N[C@H](CC(C)C)C(=O)N[C@@H](Cc1c[nH]c2ccccc12)C(=O)N[C@H](CC(C)C)C(=O)N[C@@H](Cc1c[nH]c2ccccc12)C(=O)N[C@@H](C(=O)N[C@@H](Cc1c[nH]c2ccccc12)C(=O)N[C@@H](C(=O)N[C@@H](Cc1c[nH]c2ccccc12)C(=O)NCCO)C(C)C)C(C)C)C(C)C [compound 569] (For-VGA[dT]A[dL]V[dL]W[dL]W[dV]W[dV]W-NHCH2CH2OH) | 1.01 | 100.0 | - |
| CNC(=O)C[C@@H](NC(=O)[C@@H](NC(=O)[C@@H](CC(C)C)NC(=O)[C@H](C)NC(=O)[C@@H](CC(C)C)NC(=O)[C@H](C)NC(=O)CNC(=O)[C@@H](NC=O)C(C)C)C(C)C)C(=O)N[C@@H](Cc1c[nH]c2ccccc12)C(=O)N[C@H](CC(C)C)C(=O)N[C@@H](Cc1c[nH]c2ccccc12)C(=O)N[C@H](CC(C)C)C(=O)N[C@@H](Cc1c[nH]c2ccccc12)C(=O)N[C@@H](C(=O)N[C@@H](Cc1c[nH]c2ccccc12)C(=O)NCCO)[C@H](C)O [compound 5746] (For-VGA[dL]A[dL]V[dD](NHMe)W[dL]W[dL]W[dT]W-NHCH2CH2OH) | 1.26 | 100.0 | - |
| CC(C)C[C@@H](NC(=O)[C@H](C)NC(=O)[C@H](NC(=O)[C@H](C)NC(=O)CNC(=O)[C@@H](NC=O)C(C)C)[C@H](C)O)C(=O)N[C@H](C(=O)N[C@@H](C(=O)N[C@@H](Cc1c[nH]c2ccccc12)C(=O)N[C@@H](C(=O)N[C@@H](Cc1c[nH]c2ccccc12)C(=O)N[C@H](CC(C)C)C(=O)N[C@@H](Cc1c[nH]c2ccccc12)C(=O)N[C@@H](C(=O)N[C@@H](Cc1c[nH]c2ccccc12)C(=O)NCCO)C(C)C)C(C)C)C(C)C)C(C)C [compound 8687] (For-VGA[dT]A[dL]V[dV]W[dV]W[dL]W[dV]W-NHCH2CH2OH) | 1.15 | 66.9 | - |
| CNC(=O)C[C@@H](NC(=O)[C@@H](NC(=O)[C@@H](CC(C)C)NC(=O)[C@H](C)NC(=O)[C@H](NC(=O)[C@H](C)NC(=O)CNC(=O)[C@@H](NC=O)C(C)C)C(C)C)C(C)C)C(=O)N[C@@H](Cc1c[nH]c2ccccc12)C(=O)N[C@H](CC(C)C)C(=O)N[C@@H](Cc1c[nH]c2ccccc12)C(=O)N[C@H](CC(C)C)C(=O)N[C@@H](Cc1c[nH]c2ccccc12)C(=O)N[C@@H](C(=O)N[C@@H](Cc1c[nH]c2ccccc12)C(=O)NCCO)C(C)C [compound 3800] (For-VGA[dV]A[dL]V[dD](NHMe)W[dL]W[dL]W[dV]W-NHCH2CH2OH) | 1.23 | 100.0 | - |

Reference: paper PMC7531004, “Discovery of gramicidin A analogues with altered activities by multidimensional screening of a one-bead-one-compound library” (Nature Communications, 2020)
